Molecules are shown by their SMILES.

Data set [1] has as its system pancreatic Colo357-FG cell line. The experiment in a line: In vitro activity in pancreatic Colo357-FG cell line. It is filed as cell-based. Conditions: COLO 357/FG; Colo357FG pancreatic cell line; concentration reducing cell viability to half. An excerpt: As used herein, reference to “IC50” is intended to refer to the concentration of a compound or composition that reduces the viability of cells to half the original level. In broader terms, IC50 can refer to half the maximal inhibitory concentration of a substance for inhibiting various biological processes.
In vitro activity in pancreatic Colo357-FG cell line is provided below in Table 1.

Data set [2] in a line: Preliminary biodistribution / pharmacokinetic study by oral gavage, 2-DG content in plasma and brain by LC/MS/MS. It is filed as in vivo. Conditions: CD-1 mice. From the text:
Analytical methodologies (LC/MS/MS) were developed that are capable of quantifying these acetate sugars and the resulting liberation of 2-DG in various biomatrices (plasma and brain tissue). Using this analytical method preliminary biodistribution studies were undertaken in CD-1 mice to examine the pharmacokinetics of these novel agents.
Briefly, four animals per treatment group were given equivalent doses of either 2-DG, the compound of Example 6 (6-O-acetate of 2-DG) or the compound of Example 4 (4,6-di-O-acetate of 2-DG) by oral gavage using the same vehicle. Individual groups of animals were then sacrificed at 0.25, 0.5, 1, 2 and 4 hours following dose administration. From each animal plasma and brain tissues were harvested and then analyzed for 2-DG content by LC/mass spectrometry.

The IC50 is the concentration needed to halve the response being measured. A low value points to greater potency. In data set [1], `CC(=O)OCC1OC(O)CC(OC(C)=O)C1O` (stereo not shown) [Example 5] yielded an IC50 of 1.6 mM.
For the compound `CC(=O)OCC1OC(O)CC(O)C1O` [Example 6, 6-O-acetyl-2-deoxy-D-glucose], the “duration of active concentrations of 2-DG at the site of action (brain) relative to 2-DG alone” value in data set [2] (brain) is recorded as “more than twice as long”.
For the compound `CC(=O)OCC1OC(O)CC(O)C1OC(C)=O` [Example 4, 4,6-Di-O-acetyl-2-deoxy-D-glucose], it took 1.7 mM to reach half-maximal inhibition in data set [1] (IC50).
In data set [1], `OCC1OC(O)CC(O)C1O` (stereo not shown) [Example 2-DG, 2-deoxy-glucose, reference compound] displayed an IC50 of 9.7 mM. Moreover, the “highest attained brain tissue concentration of 2-DG” value in data set [2] (at 2 hrs after administration) was found to be 12 μg/gm.
The compound `CC(=O)OC1CC(O)C(O)C(CO)O1` [Example 1, 1-O-Acetyl-2-deoxy-D-glucose] had a half-inhibitory concentration (IC50) in data set [1] of 11.9 mM.
Same read-out and setting: the same measure for `CC(=O)OCC1OC(OC(C)=O)CC(O)C1O` (stereo not shown) [Example 3]: 17.2 mM.
